pIC50: −log10 of the molar value. Counter-ions that a name gives are not always drawn.
Experiments:
rSmTAChE [1] = molecular target: T1, rSmTAChE (Schistosoma mansoni, UniProt A0A3Q0KMM5); experiment: biochemical
rSmTAChE [2] = molecular target: T1, rSmTAChE; assay type: biochemical; settings: for pIC50: read-out: qAC50 (IC50), rSmTAChE
[3] = molecular target: recombinant human acetylcholinesterase, rHsAChE (Homo sapiens, UniProt P22303); experiment: biochemical; settings: for pIC50: read-out: qAC50 (IC50), rHsAChE; for inhibition of rHsAChE, result in words: dose–response, up to 40 µM
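For Inhibition (%) (Average) in this document: mostly 20 µM final but a few compounds at 5 or 10 µM.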
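For Inhibition (%) Replicate A in this document: mostly 20 µM final but a few compounds at 5 or 10 µM.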
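For Inhibition (%) Replicate B in this document: mostly 20 µM final but a few compounds at 5 or 10 µM.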

Sequence of recombinant human acetylcholinesterase, rHsAChE (P22303 32-614): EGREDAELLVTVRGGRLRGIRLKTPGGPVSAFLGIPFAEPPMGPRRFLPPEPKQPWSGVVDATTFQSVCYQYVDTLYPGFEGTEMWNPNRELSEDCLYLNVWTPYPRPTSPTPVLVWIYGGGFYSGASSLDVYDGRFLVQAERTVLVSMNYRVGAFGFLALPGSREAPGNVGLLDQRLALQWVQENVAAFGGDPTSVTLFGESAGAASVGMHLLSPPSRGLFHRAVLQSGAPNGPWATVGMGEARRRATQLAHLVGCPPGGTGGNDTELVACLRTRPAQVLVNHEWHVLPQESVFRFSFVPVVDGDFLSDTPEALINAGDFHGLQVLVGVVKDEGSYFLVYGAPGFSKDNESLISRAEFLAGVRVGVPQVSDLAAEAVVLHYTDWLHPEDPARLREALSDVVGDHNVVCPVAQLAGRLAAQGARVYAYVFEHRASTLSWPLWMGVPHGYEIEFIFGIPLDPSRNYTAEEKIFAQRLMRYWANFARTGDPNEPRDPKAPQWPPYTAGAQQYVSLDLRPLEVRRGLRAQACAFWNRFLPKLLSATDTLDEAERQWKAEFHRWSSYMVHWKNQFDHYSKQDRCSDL
T1 sequence (A0A3Q0KMM5 27-661 limits assumed): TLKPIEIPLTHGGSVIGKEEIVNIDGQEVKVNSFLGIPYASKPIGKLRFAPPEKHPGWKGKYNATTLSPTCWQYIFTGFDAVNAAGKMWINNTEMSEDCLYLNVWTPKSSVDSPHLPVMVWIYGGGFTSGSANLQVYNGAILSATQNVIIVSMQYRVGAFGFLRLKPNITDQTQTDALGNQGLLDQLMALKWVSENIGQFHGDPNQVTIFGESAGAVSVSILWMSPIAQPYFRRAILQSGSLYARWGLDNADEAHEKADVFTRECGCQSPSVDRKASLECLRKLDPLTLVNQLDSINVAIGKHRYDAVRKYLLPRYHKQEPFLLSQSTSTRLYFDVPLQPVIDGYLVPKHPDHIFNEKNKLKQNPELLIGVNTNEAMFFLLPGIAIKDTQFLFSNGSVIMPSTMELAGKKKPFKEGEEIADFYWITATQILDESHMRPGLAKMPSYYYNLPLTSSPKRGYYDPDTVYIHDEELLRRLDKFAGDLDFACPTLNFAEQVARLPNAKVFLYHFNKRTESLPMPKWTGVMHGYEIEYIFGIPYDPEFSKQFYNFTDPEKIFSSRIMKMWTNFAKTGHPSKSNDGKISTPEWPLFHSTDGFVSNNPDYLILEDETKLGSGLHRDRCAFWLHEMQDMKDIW

SMILES | Inhibition (%) (Average) (rSmTAChE [1]) | Inhibition (%) Replicate A (rSmTAChE [1]) | Inhibition (%) Replicate B (rSmTAChE [1]) | Data Mode (curve class), rSmTAChE (rSmTAChE [2]) | Data Mode (curve class), rHsAChE [3] | pIC50 [3] | other results
COC(=O)C1=C(C)NC(C)=C(C(=O)OC(C)(C)CN(C)CCC(c2ccccc2)c2ccccc2)C1c1cccc([N+](=O)[O-])c1 (centres unmarked) [BRD-A18992208-003-02-7] | 78.14% | 77.49% | 78.79% | inactive | inactive | – | –
Cc1cc(Oc2ccc3nc(COc4ccc(CC5SC(=O)NC5=O)cc4)n(C)c3c2)cc(C)c1N (centres unmarked) [BRD-A24560335-300-01-2] | 64.01% | 61.34% | 66.67% | decreasing (weakly active) | inactive | – | pIC50 (rSmTAChE [2]): < 4.42
Clc1ccc(C(c2ccccc2Cl)C(Cl)Cl)cc1 (centres unmarked) [BRD-A31204924-001-14-2] | 71.30% | 71.94% | 70.66% | inactive | decreasing (weakly active) | < 4.42 | –
Clc1ccc(C(Cn2ccnc2)OCc2ccc(Sc3ccccc3)cc2)c(Cl)c1 (centres unmarked) [BRD-A33697453-008-02-4] | 70.27% | 64.14% | 76.40% | inactive | inactive | – | –
CCCCCCCCCCCC([NH2+][O-])c1cc(C)ccc1O (centres unmarked) [BRD-A37752546-001-01-9] | 84.23% | 82.45% | 86.01% | inactive | decreasing | 5.11 | –
CC(=O)[C@@]12OC(C)(c3ccccc3)O[C@@H]1C[C@H]1[C@@H]3CCC4=CC(=O)CC[C@]4(C)[C@H]3CC[C@@]12C (some centres unmarked) [BRD-A41774846-001-01-4] | 86.37% | 86.06% | 86.68% | decreasing (weakly active) | inactive | – | pIC50 (rSmTAChE [2]): < 4.42
COC(=O)C1=C(C)NC(C)=C(C(=O)OC/C=C/c2ccccc2)C1c1cccc([N+](=O)[O-])c1 (centres unmarked) [BRD-A68083442-001-01-6] | 87.10% | 86.49% | 87.72% | inactive | inactive | – | –
Clc1ccc(CSC(Cn2ccnc2)c2ccc(Cl)cc2Cl)cc1 (centres unmarked) [BRD-A70649075-008-30-8] | 65.58% | 67.22% | 63.95% | decreasing (weakly active) | decreasing (weakly active) | < 4.42 | pIC50 (rSmTAChE [2]): < 4.42
C[C@]12CCC3c4ccc(OC(=O)c5ccccc5)cc4CCC3C1CC[C@@H]2O (some centres unmarked) [BRD-A74765037-001-01-1] | 66.55% | 67.53% | 65.56% | inactive | inactive | – | –
C[C@]12CC[C@@H]3c4ccc(O)cc4C[C@@H](CCCCCCCCC[S+]([O-])CCCC(F)(F)C(F)(F)F)[C@H]3[C@@H]1CC[C@@H]2O (some centres unmarked) [BRD-A85667082-001-10-1] | 87.19% | 87.84% | 86.54% | – | – | – | –
C[C@]12CC[C@@H]3c4ccc(O)cc4C[C@@H](CCCCCCCCC[S+]([O-])CCCC(F)(F)C(F)(F)F)[C@H]3[C@@H]1CC[C@@H]2O (some centres unmarked) [BRD-A85667082-001-11-9] | 64.36% | 64.01% | 64.71% | inactive | decreasing (weakly active) | < 4.87 | –
C[C@]12CC[C@@H]3c4ccc(O)cc4C[C@@H](CCCCCCCCC[S+]([O-])CCCC(F)(F)C(F)(F)F)[C@H]3[C@@H]1CC[C@@H]2O (some centres unmarked) [BRD-A85667082-001-12-7] | – | – | – | decreasing (weakly active) | inactive | – | pIC50 (rSmTAChE [2]): < 4.42
C[C@]12CC[C@@H]3c4ccc(O)cc4C[C@@H](CCCCCCCCC[S+]([O-])CCCC(F)(F)C(F)(F)F)[C@H]3[C@@H]1CC[C@@H]2O (some centres unmarked) [BRD-A85667082-001-13-5] | 86.15% | 85.50% | 86.80% | inactive | inactive | – | –
CC(C)(C)c1ccc(CN2CCN(C(c3ccccc3)c3ccc(Cl)cc3)CC2)cc1 (centres unmarked) [BRD-A91444184-300-01-9] | 84.37% | 84.75% | 83.99% | inactive | inactive | – | –
C[C@]12CCC3c4ccc(O)cc4CCC3C1CC[C@@H]2OC(=O)CCC1CCCC1 (some centres unmarked) [BRD-A91452556-001-04-0] | 88.63% | 90.28% | 86.98% | inactive | decreasing (weakly active) | < 4.42 | –
COC(=O)CCSCc1ccc(-c2onc(C)c2NC(=O)OC(C)c2ccccc2Cl)cc1 (centres unmarked) [BRD-A94323479-001-02-8] | 67.17% | 60.59% | 73.75% | inactive | decreasing (weakly active) | < 4.42 | –
CCC(CC)C(c1ccc(Nc2nc3ccccc3s2)cc1)n1cncn1 (centres unmarked) [BRD-A95755460-001-01-3] | 71.38% | 75.72% | 67.03% | decreasing (weakly active) | inactive | – | pIC50 (rSmTAChE [2]): < 4.42

SMILES | Inhibition (%) (Average) (rSmTAChE [1]) | Inhibition (%) Replicate A (rSmTAChE [1]) | Inhibition (%) Replicate B (rSmTAChE [1]) | Data Mode (curve class), rSmTAChE (rSmTAChE [2]) | Data Mode (curve class), rHsAChE [3] | pIC50 [3] | other results
N#C[C@H]1[C@H](c2ccc(C#CC3CC3)cc2)[C@H](CO)N1C(=O)Cc1ccccn1 [BRD-K00124439-001-01-2] | 63.26% | 63.67% | 62.84% | – | – | – | rSmTAChE Data Mode (rSmTAChE [2]): decreasing (weakly active); rHsAChE Data Mode [3]: inactive
O=C(C[C@H]1C=C[C@H](NC(=O)c2ccncc2)[C@@H](CO)O1)Nc1ccc(-c2ccccc2)cc1 [BRD-K04695993-001-01-5] | 82.34% | 77.66% | 87.01% | – | – | – | rSmTAChE Data Mode (rSmTAChE [2]): inactive; rHsAChE Data Mode [3]: inactive
CC(C)Oc1ccc(-c2cnc3c(-c4ccnc5ccccc45)cnn3c2)cc1 [BRD-K39381259-001-01-0] | – | – | – | inactive | decreasing (weakly active) | < 4.87 | –
CC(C)Oc1ccc(-c2cnc3c(-c4ccnc5ccccc45)cnn3c2)cc1 [BRD-K39381259-001-02-8] | 67.85% | 64.38% | 71.32% | – | – | – | –
C[C@H](Oc1cc(-c2cnn(C3CCNCC3)c2)cnc1N)c1c(Cl)ccc(F)c1Cl [BRD-K40308497-001-01-2] | 86.27% | 85.50% | 87.03% | – | – | – | –
C[C@H](Oc1cc(-c2cnn(C3CCNCC3)c2)cnc1N)c1c(Cl)ccc(F)c1Cl [BRD-K40308497-001-02-0] | – | – | – | decreasing | decreasing | 4.67 | pIC50 (rSmTAChE [2]): 4.57
CC(C)(O)c1ccccc1CC[C@@H](SCC1(CC(=O)O)CC1)c1cccc(/C=C/c2ccc3ccc(Cl)cc3n2)c1 [BRD-K69470111-001-01-2] | – | – | – | decreasing (weakly active) | increasing (weakly active) | < 4.42 | pIC50 (rSmTAChE [2]): < 4.42
CC(C)(O)c1ccccc1CC[C@@H](SCC1(CC(=O)O)CC1)c1cccc(/C=C/c2ccc3ccc(Cl)cc3n2)c1 [BRD-K69470111-236-09-7] | 81.70% | 81.35% | 82.06% | – | – | – | –
CC1(C)CCC(C)(C)c2cc(C#Cc3ccc(C(=O)O)cc3)ccc21 [BRD-K81004638-001-01-7] | – | – | – | decreasing | decreasing | 4.84 | pIC50 (rSmTAChE [2]): 4.70
CC1(C)CCC(C)(C)c2cc(C#Cc3ccc(C(=O)O)cc3)ccc21 [BRD-K81004638-001-02-5] | 66.58% | 64.60% | 68.56% | – | – | – | –
CCCCCCCCc1ccc(CCC(N)(CO)CO)cc1 [BRD-K88025533-003-03-3] | 70.74% | 73.25% | 68.23% | – | – | – | –
CCCCCCCCc1ccc(CCC(N)(CO)CO)cc1 [BRD-K88025533-003-04-1] | – | – | – | inactive | inactive | – | –
C/C=C1\[C@H]2C=C(C)C[C@]1(N)c1ccc(=O)[nH]c1C2 [Huperzine A, reference compound] | – | – | – | decreasing | – | – | inhibition at 20 µM (rSmTAChE [1]; read-out: rSmTAChE HTS Inhibition (Ave, %)): 64.1%
Nc1ccc(O)c(C(=O)O)c1 [Mesalazine, reference compound] | – | – | – | decreasing | – | – | IC50 (µM) rHsAChE [3]: Inactive; inhibition of rHsAChE, result in words [3]: no detectable inhibitory effect; inhibition of rHsAChE, result in words ([3]; listed as #19): no inhibition detected
CNC(=O)Oc1ccc2c(c1)[C@]1(C)CCN(C)[C@@H]1N2C [Physostigmine salicylate, reference compound] | – | – | – | decreasing | decreasing | – | –
CNC(=O)Oc1ccc2c(c1)[C@]1(C)CCN(C)[C@@H]1N2C [Physostigmine sulfate, reference compound] | – | – | – | decreasing | decreasing | – | –

From paper PMC12154458, “High-Throughput Screens of Repurposing Hub and DOS Chemical Libraries Reveal Compounds with Novel and Potent Inhibitory Activity Against the Essential Non-Neuronal Acetylcholinesterase of Schistosoma mansoni (SmTAChE)” (International Journal of Molecular Sciences, 2025)
